# pKi: −log10 of the molar value.
# Molecular target: Mitogen-activated protein kinase kinase kinase kinase 1 (Homo sapiens, UniProt Q92918)
# Test: Binding Assay
# Experimental: Lanth: For the binding assay, 4 ul 2×HPK1 and Eu-anti-GST antibody were added to each well of the assay plate using a Multidrop reagent dispenser. The solutions were incubated in a 23 C incubator for 1 h. To each well of the assay plate was added 4 ul 2× Tracer-222 using a Multidrop reagent dispenser. The solutions were again incubated in a 23 C incubator for 1 h. The results of the assay were read using an Envision plate reader with the following parameters: TR_FRET, 340ex/615 and 665em; 100 usec Delay; and 200 usec integration.
# Sequence of Mitogen-activated protein kinase kinase kinase kinase 1 (Q92918 whole entry): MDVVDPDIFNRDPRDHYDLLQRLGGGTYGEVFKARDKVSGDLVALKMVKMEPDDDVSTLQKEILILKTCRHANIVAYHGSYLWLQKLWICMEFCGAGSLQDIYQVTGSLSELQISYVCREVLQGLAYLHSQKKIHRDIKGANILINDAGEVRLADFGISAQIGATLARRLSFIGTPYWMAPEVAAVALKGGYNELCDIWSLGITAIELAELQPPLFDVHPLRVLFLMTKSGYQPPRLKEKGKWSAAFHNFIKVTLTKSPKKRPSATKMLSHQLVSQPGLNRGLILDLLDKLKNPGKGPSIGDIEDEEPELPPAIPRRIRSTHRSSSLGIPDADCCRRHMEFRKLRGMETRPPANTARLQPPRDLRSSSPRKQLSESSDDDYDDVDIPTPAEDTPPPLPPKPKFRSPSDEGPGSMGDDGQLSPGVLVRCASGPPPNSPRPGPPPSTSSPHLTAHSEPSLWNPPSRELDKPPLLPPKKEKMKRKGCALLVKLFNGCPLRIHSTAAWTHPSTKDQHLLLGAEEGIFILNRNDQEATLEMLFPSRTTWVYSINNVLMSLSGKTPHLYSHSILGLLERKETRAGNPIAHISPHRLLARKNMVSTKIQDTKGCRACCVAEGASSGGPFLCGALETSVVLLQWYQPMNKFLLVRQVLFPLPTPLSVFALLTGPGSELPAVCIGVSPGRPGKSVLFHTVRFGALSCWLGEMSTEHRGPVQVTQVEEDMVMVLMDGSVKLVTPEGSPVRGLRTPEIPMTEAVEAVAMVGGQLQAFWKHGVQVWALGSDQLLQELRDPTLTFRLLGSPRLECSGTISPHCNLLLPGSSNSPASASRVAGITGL
smiles,measurement,value
"Cn1cc(-c2cc3cc(NC(=O)[C@H]4C[C@H]4F)ncc3c(N)n2)cn1 [US11034692, Compound 4]",pKi,8.54

# Reference: BindingDB's records for patent US11034692 (Genentech, 2021)
